Measurements reported in PubChem BioAssay (NCI).
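Method: 48-hour compound exposure of cells in 96-well plates, five concentrations, linear interpolation of endpoints. TGI: concentration producing complete growth inhibition.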

Tests used:
Assay in all cases: inhibition of tumour cell growth, NCI panel, 48 h
[1] = test system: BT-549 breast
[2] = test system: DU-145 prostate
[3] = test system: HT29 colon
[4] = test system: MCF7 breast
[5] = test system: NCI-H460 lung
[6] = test system: NCI/ADR-RES ovarian
[7] = test system: SW-620 colon
[8] = test system: U251 CNS
[9] = test system: NCI-H522 lung
[10] = test system: SK-OV-3 ovarian

Row | SMILES | TGI [1] | TGI [2] | TGI [3] | TGI [4] | TGI [5] | TGI [6] | TGI [7] | TGI [8] | TGI [9] | TGI [10]
1 | CCOC(=O)c1c(SCc2cc(=O)[nH]c(=O)[nH]2)n(-c2ccccc2)c(=S)n(-c2ccccc2)c1=O | > 100 µM | > 100 µM | > 100 µM | > 100 µM | > 100 µM | > 100 µM | > 100 µM | > 100 µM | – | –
2 | CCCCNC(=O)Cn1c2ccc(Br)cc2c2nc3ccccc3nc21 | – | > 100 µM | > 100 µM | – | – | > 100 µM | > 100 µM | > 100 µM | – | –
3 | N#Cc1c(-c2ccc([N+](=O)[O-])cc2)c(C#N)c(=O)n(NS(=O)(=O)c2ccccc2)c1O | > 100 µM | – | > 100 µM | > 100 µM | > 100 µM | > 100 µM | > 100 µM | > 100 µM | > 100 µM | > 100 µM
4 | COc1ccc(C2C=C(c3ccc(C)cc3)N(c3ccc(OC)cc3[N+](=O)[O-])C3C(=O)OC(=O)C23)c(OC)c1 (configuration not stated) | > 100 µM | – | 86.4 µM | > 100 µM | > 100 µM | – | 80.9 µM | > 100 µM | 53.7 µM | > 100 µM
5 | CC1(C)N=C(N)N=C(N)N1c1cccc(Cl)c1 | > 100 µM | > 100 µM | > 100 µM | > 100 µM | > 100 µM | > 100 µM | > 100 µM | > 100 µM | > 100 µM | > 100 µM
6 | CC(C)(C)N=NC(C)(C)N=C=O | – | – | > 100 µM | – | > 100 µM | – | > 100 µM | > 100 µM | > 100 µM | > 100 µM
7 | CO[P@@]1(=O)O[C@@H](c2ccccc2)[C@H](O)[C@]1(O)c1ccccc1 | > 100 µM | > 100 µM | > 100 µM | > 100 µM | > 100 µM | > 100 µM | > 100 µM | > 100 µM | > 100 µM | > 100 µM
8 | CC(C)(C)/C(O)=C\c1nc2cc(F)c(F)cc2[nH]c1=O | > 100 µM | 57 µM | > 100 µM | > 100 µM | > 100 µM | > 100 µM | > 100 µM | > 100 µM | – | > 100 µM
9 | CC[C@]12C=CCN3CCC4(c5cc([C@@]6(C(=O)OC)CC7CN(CCc8c6[nH]c6ccccc86)CC6CCCCC67)c(OC)cc5N(C)C4[C@](O)(C(=O)OC)C1OC(C)=O)[C@@H]32 (some centres not stated) | – | 14.2 µM | < 0.01 µM | – | 0.225 µM | 0.512 µM | 15.6 µM | < 0.01 µM | < 0.0165 µM | –
10 | CC(=O)Oc1ccn2nc(C)c(Br)c2c1 | > 100 µM | > 100 µM | > 100 µM | > 100 µM | > 100 µM | > 100 µM | > 100 µM | > 100 µM | 97.1 µM | –
11 | CCC1([N+](=O)[O-])CN(N=O)C1 | > 100 µM | > 100 µM | > 100 µM | > 100 µM | > 100 µM | > 100 µM | > 100 µM | > 100 µM | > 100 µM | > 100 µM
12 | C=CN(C=C)C(=O)Cn1cc(-c2ccccc2)nn1 | > 100 µM | > 100 µM | > 100 µM | > 100 µM | > 100 µM | > 100 µM | > 100 µM | > 100 µM | > 100 µM | –
13 | O=C1c2cc3c(cc2CC12Cc1ccc4c(c1C2=O)CCC4)CCC3 (configuration not stated) | – | > 100 µM | > 100 µM | > 100 µM | > 100 µM | > 100 µM | > 100 µM | > 100 µM | > 100 µM | > 100 µM
14 | O=c1c2cc([N+](=O)[O-])ccc2oc2nc3n(c(=O)c12)CCCS3 | > 100 µM | > 100 µM | – | > 100 µM | > 100 µM | > 100 µM | > 100 µM | > 100 µM | > 100 µM | > 100 µM
15 | CN1C2=Nc3n(c4ccccc4[n+]3C)CN2c2ccccc21 | > 100 µM | > 100 µM | > 100 µM | 33.6 µM | > 100 µM | > 100 µM | > 100 µM | > 100 µM | 65.4 µM | > 100 µM
16 | CSc1nc(Cl)c2c(n1)Sc1nc3ccccc3n1C2O (configuration not stated) | > 84.4 µM | 41.9 µM | 25.4 µM | > 100 µM | > 74.6 µM | > 24.4 µM | 25.7 µM | 15.2 µM | 7.28 µM | > 100 µM
17 | Oc1ccccc1/C=N/N1C(=S)N(C23CC4CC(CC(C4)C2)C3)C(=Nc2ccccc2)C1=Nc1ccccc1 | > 100 µM | > 100 µM | > 100 µM | – | > 100 µM | > 100 µM | > 100 µM | > 100 µM | > 100 µM | > 100 µM
18 | CSc1ncc2c(n1)-c1ccccc1OC2NC1CC1 (configuration not stated) | > 100 µM | > 100 µM | > 100 µM | > 100 µM | > 100 µM | > 100 µM | > 100 µM | > 100 µM | 82.5 µM | > 100 µM
19 | O=c1c2ccc(Cl)cc2oc2c(CNc3ccc(S(=O)(=O)Nc4ncccn4)cc3)cccc12 | > 100 µM | – | > 100 µM | > 100 µM | – | > 100 µM | > 100 µM | > 100 µM | > 100 µM | > 100 µM
20 | COc1ccc(C(=O)/C=C/SC(=NC#N)SC)cc1 | – | 53.5 µM | 49.5 µM | 38.2 µM | > 100 µM | 42.3 µM | 48.3 µM | 37.9 µM | 37.1 µM | 47.5 µM
21 | O=[N+]([O-])c1ccc(-c2csc(=[N+]3CCCCC3)s2)cc1 | – | – | > 100 µM | – | > 100 µM | – | > 100 µM | > 20.8 µM | 18.3 µM | > 100 µM
22 | CC(C)=C/C(CC(O)(C(F)(F)F)C(F)(F)F)=N\O | – | > 100 µM | > 100 µM | > 100 µM | > 100 µM | > 100 µM | > 100 µM | > 100 µM | – | > 100 µM
23 | O=C(NC(C(F)(F)F)(C(F)(F)F)P(=O)(Cc1ccccc1)Cc1ccccc1)C(C(F)(F)F)C(F)(F)F | – | > 100 µM | 45.4 µM | 31.8 µM | 78.3 µM | 44 µM | 92.7 µM | 41.5 µM | 60.4 µM | > 100 µM
